Like-named read-outs stand apart in the source and are kept apart here.
What was measured:
Experiment in all cases: cells
CWR22Rv1(shGFP) = conditions: AR Status=H874Y and V7, growth inhibition with PARP7-inducing ligand, partial maximal effect
Excerpt: (§1) VCaP cells encode wild-type (WT) AR and the V7 variant, and are used to model castrate resistance owing to amplification of AR. CWR22Rv1 is an informative model for therapy resistance mediated by AR splice variants that lack the ligand-binding domain. PC3-AR is a PC3 derivative engineered to express WT AR, which drives a gene expression profile that overlaps other prostate lines ([18]). PC3 cells are AR negative, resistant to therapies based on androgen deprivation, highly motile, and used to study prostate cancer metastasis. […] It is well established that androgen treatment is growth repressive in some prostate cancer lines. […] A G1 effect of androgen is, however, apparent in VCaP and PC3-AR cells (Supplementary Fig. S1A). […] FICZ is a naturally occurring tryptophan photoproduct, while 10-Chloro-7H-benzimidazo[2,1-a]benz[de]isoquinolin-7-one (10-CI-BBQ; here termed BBQ) is a synthetic molecule. FICZ and BBQ induce AHR target genes through a chaperone-mediated mechanism ([26]). […] In A, D–H, each condition reflects eight biological replicates, error bars show the SD, and ****, P < 0.0001; ***, P < 0.001; **, <0.01. […] The experiments were performed in triplicate, error bars show the SD, and ***, P < 0.001; **, <0.01, *, <0.05; ns, not significant. C, Phase contrast microscopy showing the morphology of cells treated with AHR agonist and RBN2397. […] A similar image for CWR22Rv1 cells with vehicle alone (−) is used in both Fig. 2C and 4C. […] F, RBN2397 dose–response curve of VCaP cells treated with BBQ.

CWR22Rv1(shPARP7) = conditions: AR Status=H874Y and V7, growth inhibition with PARP7-inducing ligand, partial maximal effect
Excerpt: as §1

DU145 = conditions: Homo sapiens, DU-145, read-out: EC50 of RBN2397 (nM), Ligand* (Conc.)=BBQ (10 nM); AR Status=(-); growth inhibition with PARP7-inducing ligand; partial maximal effect
Excerpt: as §1

PC3AR(shGFP) = conditions: PC3/AR, AR Status=WT, growth inhibition with PARP7-inducing ligand, partial maximal effect
Excerpt: as §1

PC3AR(shParp7) = conditions: PC3/AR, AR Status=WT, growth inhibition with PARP7-inducing ligand, partial maximal effect
Excerpt: as §1

PC3AR = conditions: PC3/AR, read-out: EC50 of RBN2397 (nM), Ligand* (Conc.)=R1881 (0.2 nM); AR Status=WT; growth inhibition with PARP7-inducing ligand; partial maximal effect
Excerpt: as §1

PC3 = conditions: Homo sapiens, AR Status=(-), growth inhibition with PARP7-inducing ligand, partial maximal effect
Excerpt: as §1

VCaP = conditions: Homo sapiens, VCaP, AR Status=WT and V7, growth inhibition with PARP7-inducing ligand, partial maximal effect
Excerpt: as §1

[1] = CWR22Rv1, read-out: EC50 of RBN2397 (nM), Ligand* (Conc.)=BBQ (10 nM)
[2] = CWR22Rv1, read-out: EC50 of RBN2397 (nM), Ligand* (Conc.)=R1881 (2 nM)
[3] = read-out: EC50 of RBN2397 (nM), Ligand* (Conc.)=BBQ (10 nM)
[4] = read-out: EC50 of RBN2397 (nM), Ligand* (Conc.)=R1881 (0.2 nM)

Structure (SMILES): C[C@@H](COCCC(=O)N1CCN(c2ncc(C(F)(F)F)cn2)CC1)Nc1cn[nH]c(=O)c1C(F)(F)F [RBN2397]
- EC50 (CWR22Rv1(shGFP); [1]): 0.6 nM
- EC50 (CWR22Rv1(shGFP); [2]): 4.8 nM
- EC50 (CWR22Rv1(shPARP7); [1]): 1.7 nM
- EC50 (CWR22Rv1(shPARP7); [2]): 39.6 nM
- EC50 (DU145): 5.2 nM
- EC50 (PC3AR(shGFP); [3]): 8.4 nM
- EC50 (PC3AR(shGFP); [4]): 3.4 nM
- EC50 (PC3AR(shParp7); [3]): 5.6 nM
- EC50 (PC3AR(shParp7); [4]): 5.7 nM
- EC50 (PC3AR): 2.4 nM
- EC50 (PC3; PC-3, read-out: EC50 of RBN2397 (nM), Ligand* (Conc.)=BBQ (10 nM)): 10 nM
- EC50 (PC3; PC-3, read-out: EC50 of RBN2397 (nM), Ligand* (Conc.)=R1881 (0.2 nM)): 9.4 nM
- EC50 (VCaP; read-out: EC50 of RBN2397 (nM), Ligand* (Conc.)=BBQ (100 nM)): 34.2 nM
- EC50 (VCaP; read-out: EC50 of RBN2397 (nM), Ligand* (Conc.)=R1881 (2 nM)): 3.4 nM
